Experimental data published in patent US20240059915A1, “COLOR-CHANGE INK” (Société BIC, priority 2020, published 2024).

Assay: Solubility of Acid Blue 93 in several solvents
Type: physicochemical
Protocol: The solubility of Acid Blue 93, a water-soluble pH-sensitive triarylmethane dye, was determined by stirring 5 wt.-%0 of the dye in 95 wt.-%0 of the solvent. The following results reported in below Table 1 were obtained:
This is surprising since these water-soluble dyes are commonly known to be insoluble in organic solvents, as also seen in the above comparative solvents. In these comparative solvents, it can be observed that the solvent is not colored and that the dye remains in the form of particles and precipitates at the bottom of the recipient.

Measured: Solubility

O=S(=O)([O-])c1ccc(N=C2C=CC(=C(c3ccc(Nc4ccc(S(=O)(=O)[O-])cc4)cc3)c3ccc(Nc4ccc(S(=O)(=O)O)cc4)cc3)C=C2)cc1.[Na+].[Na+] [Acid Blue 93]
Insoluble: 5 wt.-% dye stirred in 95 wt.-% 1-phenoxy-2-propanol | 5 wt.-% dye stirred in 95 wt.-% 1-phenoxy-ethanol | 5 wt.-% dye stirred in 95 wt.-% Carbitol (CAS 111-90-0) | 5 wt.-% dye stirred in 95 wt.-% benzylic alcohol | 5 wt.-% dye stirred in 95 wt.-% cyrene | 5 wt.-% dye stirred in 95 wt.-% dipropylene glycol
Soluble: 5 wt.-% dye stirred in 95 wt.-% 1,2-propanediol | 5 wt.-% dye stirred in 95 wt.-% diethyleneglycol | 5 wt.-% dye stirred in 95 wt.-% dimethylsulfoxide | 5 wt.-% dye stirred in 95 wt.-% monoethyleneglycol
